These results are taken from patent US20230093099A1, “COMPOUNDS AND METHODS OF TREATING CANCERS” (CULLGEN (SHANGHAI), INC., priority 2019, published 2023).

One may read the IC50 as the concentration that inhibits the measured activity by half.

The subject of this experiment is RS4;11 cells. Nature of the experiment: Cell viability assay (CellTiter-Glo) in RS4;11 cells. Format: cell-based. Conditions: Homo sapiens, 72 h; RS4;11 cells; cell viability, 3 days, CellTiter-Glo; read-out: IC50. The procedure:
Specific exemplary heterobifunctional compounds were first characterized using cell viability assays. RS4;11 ALL cells were treated with bifunctional degraders for three days. The IC50 values ranged from 2 nM to over 10 uM.
MV4;11, RS4;11, Kasumi-1, HEL and other cells were treated with NVP-BSK805, TG101209 or selected degraders for 3 days at indicated concentrations following a 3-fold serial dilution.
HEL, RS4;11, MV4;11, Kasumi-1 and other cells were cultured at 37° C. with 5% CO2 in RPMI 1640 or DMEM Medium supplemented with 10% fetal bovine serum. Cells were authenticated using the short tandem repeat (STR) assays. Mycoplasma test results were negative.
Cells were seeded at a density of 5000 cells per well in 96-well assay plates and treated with test compounds following a 8-point or 12-point 3-fold serial dilution. Three days later, cell viability was determined using the CellTiter-Glo assay kit according to the manufacturer's instructions. The dose-response curves were determined and IC50 values were calculated using the GraphPad Prism software following a nonlinear regression (least squares fit) method.
For the compound `Cc1cnc(Nc2ccc(N3CCN(C(=O)CCOCCOCCOCCOCCC(=O)N[C@H](C(=O)N4C[C@H](O)C[C@H]4C(=O)NCc4ccc(-c5scnc5C)cc4)C(C)(C)C)CC3)cc2)nc1Nc1cccc(S(=O)(=O)NC(C)(C)C)c1` [JA-035, (2S,4R)-1-((S)-2-(tert-Butyl)-19-(4-(4-((4-((3-(N-(tert-butyl)sulfamoyl)phenyl)amino)-5-methylpyrimidin-2-yl)amino)phenyl)piperazin-1-yl)-4,19-dioxo-7,10,13,16-tetraoxa-3-azanonadecanoyl)-4-hydroxy-N-(4-(4-methylthiazol-5-yl)benzyl)pyrrolidine-2-carboxamide], the IC50 was over 10 µM.

Regarding `Cc1cnc(Nc2ccc(N3CCN(C(=O)COCCOCCOCCOCCOCC(=O)N[C@H](C(=O)N4C[C@H](O)C[C@H]4C(=O)NCc4ccc(-c5scnc5C)cc4)C(C)(C)C)CC3)cc2)nc1Nc1cccc(S(=O)(=O)NC(C)(C)C)c1` [JA-036, (2S,4R)-1-((S)-2-(tert-Butyl)-20-(4-(4-((4-((3-(N-(tert-butyl)sulfamoyl)phenyl)amino)-5-methylpyrimidin-2-yl)amino)phenyl)piperazin-1-yl)-4,20-dioxo-6,9,12,15,18-pentaoxa-3-azaicosanoyl)-4-hydroxy-N-(4-(4-methylthiazol-5-yl)benzyl)pyrrolidine-2-carboxamide], the IC50 is over 10 µM.

Regarding `Cc1cnc(Nc2ccc(N3CCN(C(=O)CCOCCOCCOCCOCCOCCC(=O)N[C@H](C(=O)N4C[C@H](O)C[C@H]4C(=O)NCc4ccc(-c5scnc5C)cc4)C(C)(C)C)CC3)cc2)nc1Nc1cccc(S(=O)(=O)NC(C)(C)C)c1` [JA-037, (2S,4R)-1-((S)-2-(tert-Butyl)-22-(4-(4-((4-((3-(N-(tert-butyl)sulfamoyl)phenyl)amino)-5-methylpyrimidin-2-yl)amino)phenyl)piperazin-1-yl)-4,22-dioxo-7,10,13,16,19-pentaoxa-3-azadocosanoyl)-4-hydroxy-N-(4-(4-methylthiazol-5-yl)benzyl)pyrrolidine-2-carboxamide], the IC50 was over 10 µM.

For `O=C1CCC(N2C(=O)c3cccc(NCCCCCCCC(=O)N4CCC(n5cc(-c6cnc7cccc(-c8cc(F)c(CN9CCOCC9)c(F)c8)c7n6)cn5)CC4)c3C2=O)C(=O)N1` (stereo not drawn) [JA-038, 4-[[8-[4-[4-[8-[3,5-Difluoro-4-(morpholinomethyl)phenyl]quinoxalin-2-yl]pyrazol-1-yl]-1-piperidyl]-8-oxo-octyl]amino]-2-(2,6-dioxo-3-piperidyl)isoindoline-1,3-dione], the IC50 is over 10 µM.

With `O=C1CCC(N2C(=O)c3cccc(NCCOCCOCCC(=O)N4CCC(n5cc(-c6cnc7cccc(-c8cc(F)c(CN9CCOCC9)c(F)c8)c7n6)cn5)CC4)c3C2=O)C(=O)N1` (stereo not drawn) [JA-039, 4-[2-[2-[3-[4-[4-[8-[3,5-Difluoro-4-(morpholinomethyl)phenyl]quinoxalin-2-yl]pyrazol-1-yl]-1-piperidyl]-3-oxo-propoxy]ethoxy]ethylamino]-2-(2,6-dioxo-3-piperidyl)isoindoline-1,3-dione], the IC50 was over 10 µM.

With `O=C1CCC(N2C(=O)c3cccc(NCCCCCCC(=O)N4CCC(n5cc(-c6cnc7cccc(-c8cc(F)c(CN9CCOCC9)c(F)c8)c7n6)cn5)CC4)c3C2=O)C(=O)N1` (stereo not drawn) [JA-040, 4-[[7-[4-[4-[8-[3,5-Difluoro-4-(morpholinomethyl)phenyl]quinoxalin-2-yl]pyrazol-1-yl]-1-piperidyl]-7-oxo-heptyl]amino]-2-(2,6-dioxo-3-piperidyl)isoindoline-1,3-dione], the IC50 is over 10 µM.

In the case of `Cc1ncsc1-c1ccc(CNC(=O)[C@@H]2C[C@@H](O)CN2C(=O)[C@@H](NC(=O)CCCCC(=O)N2CCC(n3cc(-c4cnc5cccc(-c6cc(F)c(CN7CCOCC7)c(F)c6)c5n4)cn3)CC2)C(C)(C)C)cc1` [JA-041, (2S,4R)-1-[(2S)-2-[[6-[4-[4-[8-[3,5-Difluoro-4-(morpholinomethyl)phenyl]quinoxalin-2-yl]pyrazol-1-yl]-1-piperidyl]-6-oxo-hexanoyl]amino]-3,3-dimethyl-butanoyl]-4-hydroxy-N-[[4-(4-methylthiazol-5-yl)phenyl]methyl]pyrrolidine-2-carboxamide], the IC50 is over 10 µM.

In the case of `Cc1ncsc1-c1ccc(CNC(=O)[C@@H]2C[C@@H](O)CN2C(=O)[C@@H](NC(=O)CCCCCCCCC(=O)N2CCC(n3cc(-c4cnc5cccc(-c6cc(F)c(CN7CCOCC7)c(F)c6)c5n4)cn3)CC2)C(C)(C)C)cc1` [JA-042, (2S,4R)-1-[(2S)-2-[[10-[4-[4-[8-[3,5-Difluoro-4-(morpholinomethyl)phenyl]quinoxalin-2-yl]pyrazol-1-yl]-1-piperidyl]-10-oxo-decanoyl]amino]-3,3-dimethyl-butanoyl]-4-hydroxy-N-[[4-(4-methylthiazol-5-yl)phenyl]methyl]pyrrolidine-2-carboxamide], the IC50 was over 10 µM.

As to `O=C1CCC(N2C(=O)c3cccc(NCCOCCOCCOCCOCCOCCC(=O)N4CCC(n5cc(-c6cnc7cccc(-c8cc(F)c(CN9CCOCC9)c(F)c8)c7n6)cn5)CC4)c3C2=O)C(=O)N1` (stereo not drawn) [JA-043, 4-[2-[2-[2-[2-[2-[3-[4-[4-[8-[3,5-Difluoro-4-(morpholinomethyl)phenyl]quinoxalin-2-yl]pyrazol-1-yl]-1-piperidyl]-3-oxo-propoxy]ethoxy]ethoxy]ethoxy]ethoxy]ethylamino]-2-(2,6-dioxo-3-piperidyl)isoindoline-1,3-dione], the IC50 stood at 7.54 µM.

For `Cc1ncsc1-c1ccc(CNC(=O)[C@@H]2C[C@@H](O)CN2C(=O)[C@@H](NC(=O)CCOCCOCCOCCOCCOCCC(=O)N2CCC(n3cc(-c4cnc5cccc(-c6cc(F)c(CN7CCOCC7)c(F)c6)c5n4)cn3)CC2)C(C)(C)C)cc1` [JA-044, (2S,4R)-1-[(2S)-2-[3-[2-[2-[2-[2-[3-[4-[4-[8-[3,5-Difluoro-4-(morpholinomethyl)phenyl]quinoxalin-2-yl]pyrazol-1-yl]-1-piperidyl]-3-oxo-propoxy]ethoxy]ethoxy]ethoxy]ethoxy]propanoylamino]-3,3-dimethyl-butanoyl]-4-hydroxy-N-[[4-(4-methylthiazol-5-yl)phenyl]methyl]pyrrolidine-2-carboxamide], the IC50 is over 10 µM.

For `O=C1CCC(N2C(=O)c3cccc(NCCOCCC(=O)N4CCC(n5cc(-c6cnc7cccc(-c8cc(F)c(CN9CCOCC9)c(F)c8)c7n6)cn5)CC4)c3C2=O)C(=O)N1` (stereo not drawn) [JA-045, 4-[2-[3-[4-[4-[8-[3,5-Difluoro-4-(morpholinomethyl)phenyl]quinoxalin-2-yl]pyrazol-1-yl]-1-piperidyl]-3-oxo-propoxy]ethylamino]-2-(2,6-dioxo-3-piperidyl)isoindoline-1,3-dione], the IC50 amounted to 1.26 µM.

With `Cc1ncsc1-c1ccc(CNC(=O)[C@@H]2C[C@@H](O)CN2C(=O)[C@@H](NC(=O)CCCC(=O)N2CCC(n3cc(-c4cnc5cccc(-c6cc(F)c(CN7CCOCC7)c(F)c6)c5n4)cn3)CC2)C(C)(C)C)cc1` [JA-046, (2S,4R)-1-[(2S)-2-[[5-[4-[4-[8-[3,5-Difluoro-4-(morpholinomethyl)phenyl]quinoxalin-2-yl]pyrazol-1-yl]-1-piperidyl]-5-oxo-pentanoyl]amino]-3,3-dimethyl-butanoyl]-4-hydroxy-N-[[4-(4-methylthiazol-5-yl)phenyl]methyl]pyrrolidine-2-carboxamide], the IC50 is over 10 µM.
